Measured values taken from publication PMC7265341, “Quantifying CDK inhibitor selectivity in live cells” (Nature Communications, 2020).
Like-named read-outs stand apart in the source and are kept apart here.

How the values were obtained:
CDK1/Cyclin E1 = CDK1/Cyclin E1 (Homo sapiens, UniProt P06493); experiment: NanoBRET live-cell target engagement, CDK1-NanoLuc/Cyclin E1 in HEK-293; type: binding; details: 10µM, read-out: CDK1/E1 Inhibition at 10µM (%)
CDK4/Cyclin D1 = CDK4/Cyclin D1 (Homo sapiens, UniProt P11802); experiment: NanoBRET live-cell target engagement, NanoLuc-CDK4/Cyclin D1 in HEK-293; type: binding; details: 10µM, read-out: CDK4/D1 Inhibition at 10µM (%)
CDK5/CDK5R1 = CDK5/CDK5R1 (Homo sapiens, UniProt Q00535); experiment: NanoBRET live-cell target engagement, CDK5-NanoLuc/CDK5R1 in HEK-293; type: binding; details: 10µM, read-out: CDK5/CDK5R1 Inhibition at 10µM (%)
CDK6/Cyclin D1 = CDK6/Cyclin D1 (Homo sapiens, UniProt Q00534); experiment: NanoBRET live-cell target engagement, NanoLuc-CDK6/Cyclin D1 in HEK-293; type: binding; details: 10µM, read-out: CDK6/D1 Inhibition at 10µM (%)
CDK7 = CDK7 (Homo sapiens, UniProt P50613); experiment: NanoBRET live-cell target engagement, NanoLuc-CDK7 in HEK-293; type: binding; details: 10µM, read-out: CDK7 Inhibition at 10µM (%)
CDK8/Cyclin C = CDK8/Cyclin C (Homo sapiens, UniProt P49336); experiment: NanoBRET live-cell target engagement, NanoLuc-CDK8/Cyclin C in HEK-293; type: binding; details: 10µM, read-out: CDK8/C Inhibition at 10µM (%)
CDK9/Cyclin K = CDK9/Cyclin K (Homo sapiens, UniProt P50750); experiment: NanoBRET live-cell target engagement, NanoLuc-CDK9/Cyclin K in HEK-293; type: binding; details: 10µM, read-out: CDK9/K Inhibition at 10µM (%)
CDK11A/Cyclin L2 = molecular target: T1, CDK11A/Cyclin L2 (Homo sapiens, UniProt Q9UQ88); experiment: NanoBRET live-cell target engagement, CDK11A-NanoLuc/Cyclin L2 in HEK-293; type: binding; details: 10µM, read-out: CDK11a/L2 Inhibition at 10µM (%)
T1 sequence (Q9UQ88 1-783): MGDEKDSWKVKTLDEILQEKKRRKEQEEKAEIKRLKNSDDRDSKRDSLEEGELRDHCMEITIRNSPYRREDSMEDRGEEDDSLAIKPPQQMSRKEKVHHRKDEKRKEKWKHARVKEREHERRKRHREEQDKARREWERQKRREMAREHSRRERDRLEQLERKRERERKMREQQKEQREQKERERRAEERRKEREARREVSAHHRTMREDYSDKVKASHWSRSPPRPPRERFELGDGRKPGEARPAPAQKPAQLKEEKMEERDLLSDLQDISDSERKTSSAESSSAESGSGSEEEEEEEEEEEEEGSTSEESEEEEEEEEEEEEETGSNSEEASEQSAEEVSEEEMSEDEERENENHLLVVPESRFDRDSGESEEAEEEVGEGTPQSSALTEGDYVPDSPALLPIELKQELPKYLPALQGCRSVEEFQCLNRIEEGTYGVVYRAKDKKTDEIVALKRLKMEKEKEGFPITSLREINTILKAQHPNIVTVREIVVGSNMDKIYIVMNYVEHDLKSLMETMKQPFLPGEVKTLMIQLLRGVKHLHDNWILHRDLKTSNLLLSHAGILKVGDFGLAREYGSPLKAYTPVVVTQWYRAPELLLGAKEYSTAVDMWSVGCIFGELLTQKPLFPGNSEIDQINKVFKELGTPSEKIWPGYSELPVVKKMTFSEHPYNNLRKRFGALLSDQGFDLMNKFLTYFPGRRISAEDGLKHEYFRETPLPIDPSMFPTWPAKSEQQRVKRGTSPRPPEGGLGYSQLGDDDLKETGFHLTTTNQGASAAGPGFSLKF

CDK11B/Cyclin L2 = CDK11B/Cyclin L2 (Homo sapiens, UniProt P21127); experiment: NanoBRET live-cell target engagement, CDK11B-NanoLuc/Cyclin L2 in HEK-293; type: binding; details: 10µM, read-out: CDK11b/L2 Inhibition at 10µM (%)
CDK12/Cyclin K = CDK12/Cyclin K (Homo sapiens, UniProt Q9NYV4); experiment: NanoBRET live-cell target engagement, CDK12-NanoLuc/Cyclin K in HEK-293; type: binding; details: 10µM, read-out: CDK12/K Inhibition at 10µM (%)
CDK13/Cyclin K = CDK13/Cyclin K (Homo sapiens, UniProt Q14004); experiment: NanoBRET live-cell target engagement, CDK13-NanoLuc/Cyclin K in HEK-293; type: binding; details: 10µM, read-out: CDK13/K Inhibition at 10µM (%)
CDK14/Cyclin Y = CDK14/Cyclin Y (Homo sapiens, UniProt O94921); experiment: NanoBRET live-cell target engagement, CDK14-NanoLuc/Cyclin Y in HEK-293; type: binding; details: 10µM, read-out: CDK14/Y Inhibition at 10µM (%)
CDK15/Cyclin Y = CDK15/Cyclin Y (Homo sapiens, UniProt Q96Q40); experiment: NanoBRET live-cell target engagement, NanoLuc-CDK15/Cyclin Y in HEK-293; type: binding; details: 10µM, read-out: CDK15/Y Inhibition at 10µM (%)
CDK16/Cyclin Y = CDK16/Cyclin Y (Homo sapiens, UniProt Q00536); experiment: NanoBRET live-cell target engagement, CDK16-NanoLuc/Cyclin Y in HEK-293; type: binding; details: for inhibition at 10 µM: read-out: CDK16/Y Inhibition at 10µM (%); for IC50: read-out: CDK16/Y IC50
CDK17/Cyclin Y = CDK17/Cyclin Y (Homo sapiens, UniProt Q00537); experiment: NanoBRET live-cell target engagement, CDK17-NanoLuc/Cyclin Y in HEK-293; type: binding; details: for inhibition at 10 µM: read-out: CDK17/Y Inhibition at 10µM (%); for IC50: read-out: CDK17/Y IC50
CDK18/Cyclin Y = CDK18/Cyclin Y (Homo sapiens, UniProt Q07002); experiment: NanoBRET live-cell target engagement, CDK18-NanoLuc/Cyclin Y in HEK-293; type: binding; details: 10µM, read-out: CDK18/Y Inhibition at 10µM (%)
CDK20/Cyclin H = CDK20/Cyclin H (Homo sapiens, UniProt Q8IZL9); experiment: NanoBRET live-cell target engagement, NanoLuc-CDK20/Cyclin H in HEK-293; type: binding; details: 10µM, read-out: CDK20/H Inhibition at 10µM (%)
CDK19/Cyclin C = CDK19/Cyclin C (Homo sapiens, UniProt Q9BWU1); experiment: NanoBRET live-cell target engagement, NanoLuc-CDK19/Cyclin C in HEK-293; details: read-out: CDK19/C Inhibition at 10µM (%), 10µM
CDK10/Cyclin L2 = CDK10/Cyclin L2 (Homo sapiens, UniProt Q15131); experiment: NanoBRET live-cell target engagement, CDK10-NanoLuc/Cyclin L2 in HEK-293; details: read-out: CDK10/L2 Inhibition at 10µM (%), 10µM
Chain of CDK10/Cyclin L2 (Q15131 whole entry): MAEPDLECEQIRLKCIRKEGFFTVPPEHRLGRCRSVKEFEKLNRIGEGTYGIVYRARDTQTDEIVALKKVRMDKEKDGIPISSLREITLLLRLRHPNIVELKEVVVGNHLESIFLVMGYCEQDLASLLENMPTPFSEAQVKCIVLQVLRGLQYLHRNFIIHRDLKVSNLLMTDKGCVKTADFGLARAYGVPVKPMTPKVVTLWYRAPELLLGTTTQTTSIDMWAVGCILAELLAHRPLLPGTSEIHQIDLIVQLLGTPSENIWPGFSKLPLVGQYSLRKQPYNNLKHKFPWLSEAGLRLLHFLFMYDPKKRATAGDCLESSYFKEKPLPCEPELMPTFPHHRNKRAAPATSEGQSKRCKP

Chain of CDK5/CDK5R1 (Q00535 whole entry): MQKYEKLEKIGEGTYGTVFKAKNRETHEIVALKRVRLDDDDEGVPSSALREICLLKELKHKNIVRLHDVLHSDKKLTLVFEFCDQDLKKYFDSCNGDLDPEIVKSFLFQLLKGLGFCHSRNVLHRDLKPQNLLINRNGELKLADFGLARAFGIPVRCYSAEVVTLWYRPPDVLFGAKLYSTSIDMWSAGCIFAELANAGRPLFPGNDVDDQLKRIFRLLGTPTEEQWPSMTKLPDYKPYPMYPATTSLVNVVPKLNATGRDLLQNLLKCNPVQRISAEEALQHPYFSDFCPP
Chain of CDK5/CDK5R1 (Q15078 whole entry partner): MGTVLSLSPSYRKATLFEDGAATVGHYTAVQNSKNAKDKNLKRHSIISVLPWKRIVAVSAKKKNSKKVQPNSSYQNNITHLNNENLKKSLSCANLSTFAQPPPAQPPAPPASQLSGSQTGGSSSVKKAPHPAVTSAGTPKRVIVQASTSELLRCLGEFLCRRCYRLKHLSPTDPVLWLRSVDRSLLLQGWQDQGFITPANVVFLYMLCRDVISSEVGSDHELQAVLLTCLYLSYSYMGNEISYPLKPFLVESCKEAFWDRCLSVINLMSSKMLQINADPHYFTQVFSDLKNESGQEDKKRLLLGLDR
Chain of CDK9/Cyclin K (P50750 whole entry): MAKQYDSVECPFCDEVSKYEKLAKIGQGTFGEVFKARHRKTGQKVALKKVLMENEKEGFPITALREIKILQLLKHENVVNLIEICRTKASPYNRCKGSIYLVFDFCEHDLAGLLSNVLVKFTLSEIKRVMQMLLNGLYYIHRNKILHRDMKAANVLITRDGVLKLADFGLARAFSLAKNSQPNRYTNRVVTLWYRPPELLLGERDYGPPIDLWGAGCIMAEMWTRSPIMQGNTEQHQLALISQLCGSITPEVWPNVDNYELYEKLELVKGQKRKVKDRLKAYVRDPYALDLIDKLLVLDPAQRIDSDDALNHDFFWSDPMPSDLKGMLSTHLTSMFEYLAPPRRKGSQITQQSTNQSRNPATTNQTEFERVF
Chain of CDK9/Cyclin K (O75909 whole entry partner): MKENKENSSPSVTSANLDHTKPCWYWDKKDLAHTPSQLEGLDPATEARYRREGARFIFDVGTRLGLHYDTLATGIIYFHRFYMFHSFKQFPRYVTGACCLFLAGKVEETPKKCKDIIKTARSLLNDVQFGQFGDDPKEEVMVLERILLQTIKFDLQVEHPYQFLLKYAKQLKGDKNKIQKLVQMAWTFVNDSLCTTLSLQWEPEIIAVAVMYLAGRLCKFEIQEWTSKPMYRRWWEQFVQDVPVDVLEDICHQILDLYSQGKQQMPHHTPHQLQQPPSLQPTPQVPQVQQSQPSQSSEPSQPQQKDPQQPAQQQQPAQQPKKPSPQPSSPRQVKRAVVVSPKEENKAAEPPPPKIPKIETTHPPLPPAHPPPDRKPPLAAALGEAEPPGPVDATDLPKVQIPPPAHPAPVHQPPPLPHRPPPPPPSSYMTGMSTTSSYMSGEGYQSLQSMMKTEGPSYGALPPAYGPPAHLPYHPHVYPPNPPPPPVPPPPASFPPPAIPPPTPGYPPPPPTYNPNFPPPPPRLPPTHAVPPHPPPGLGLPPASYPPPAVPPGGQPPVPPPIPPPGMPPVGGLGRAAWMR
Chain of CDK12/Cyclin K (Q9NYV4 1-1481 isoform Q9NYV4-2): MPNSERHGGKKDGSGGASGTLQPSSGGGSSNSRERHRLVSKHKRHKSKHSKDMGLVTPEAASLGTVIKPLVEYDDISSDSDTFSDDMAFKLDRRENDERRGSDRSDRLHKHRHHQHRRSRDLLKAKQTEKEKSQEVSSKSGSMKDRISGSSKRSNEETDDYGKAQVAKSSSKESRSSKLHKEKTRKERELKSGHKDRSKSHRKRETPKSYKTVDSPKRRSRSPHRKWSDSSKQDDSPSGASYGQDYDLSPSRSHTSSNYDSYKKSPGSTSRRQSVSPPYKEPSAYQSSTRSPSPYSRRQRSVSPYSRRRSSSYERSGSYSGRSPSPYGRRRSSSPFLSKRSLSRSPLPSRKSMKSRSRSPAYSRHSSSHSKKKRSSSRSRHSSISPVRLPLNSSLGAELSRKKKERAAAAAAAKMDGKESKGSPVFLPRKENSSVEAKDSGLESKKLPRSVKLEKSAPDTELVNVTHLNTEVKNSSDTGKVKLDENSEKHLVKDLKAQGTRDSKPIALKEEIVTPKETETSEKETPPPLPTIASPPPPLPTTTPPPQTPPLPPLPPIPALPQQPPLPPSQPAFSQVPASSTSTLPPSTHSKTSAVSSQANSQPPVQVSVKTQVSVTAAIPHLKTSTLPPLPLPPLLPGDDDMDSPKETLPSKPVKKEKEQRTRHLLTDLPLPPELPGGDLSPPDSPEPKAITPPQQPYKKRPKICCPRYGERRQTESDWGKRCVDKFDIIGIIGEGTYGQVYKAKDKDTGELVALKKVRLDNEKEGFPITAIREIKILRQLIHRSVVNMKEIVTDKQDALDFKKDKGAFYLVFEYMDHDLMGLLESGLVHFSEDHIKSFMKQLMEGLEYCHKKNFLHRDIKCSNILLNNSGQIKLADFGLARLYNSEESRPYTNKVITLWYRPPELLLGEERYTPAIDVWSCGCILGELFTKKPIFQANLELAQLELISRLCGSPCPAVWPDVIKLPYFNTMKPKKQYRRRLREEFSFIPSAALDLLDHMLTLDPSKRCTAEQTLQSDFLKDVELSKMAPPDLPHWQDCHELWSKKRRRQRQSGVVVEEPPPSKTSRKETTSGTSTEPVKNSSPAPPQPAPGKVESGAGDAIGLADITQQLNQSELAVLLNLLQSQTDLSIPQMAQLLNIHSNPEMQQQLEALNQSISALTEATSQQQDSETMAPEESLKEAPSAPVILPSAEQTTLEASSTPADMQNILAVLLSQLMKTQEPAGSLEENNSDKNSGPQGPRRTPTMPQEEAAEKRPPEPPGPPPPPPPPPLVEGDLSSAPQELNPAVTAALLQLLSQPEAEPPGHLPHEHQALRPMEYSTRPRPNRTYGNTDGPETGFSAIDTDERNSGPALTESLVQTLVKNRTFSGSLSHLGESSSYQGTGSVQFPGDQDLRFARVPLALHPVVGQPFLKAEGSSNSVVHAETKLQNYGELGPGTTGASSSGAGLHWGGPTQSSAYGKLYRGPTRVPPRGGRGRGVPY
Chain of CDK12/Cyclin K (O75909 whole entry partner): as the sequence (O75909 whole entry partner) above
Chain of CDK8/Cyclin C (P49336 whole entry): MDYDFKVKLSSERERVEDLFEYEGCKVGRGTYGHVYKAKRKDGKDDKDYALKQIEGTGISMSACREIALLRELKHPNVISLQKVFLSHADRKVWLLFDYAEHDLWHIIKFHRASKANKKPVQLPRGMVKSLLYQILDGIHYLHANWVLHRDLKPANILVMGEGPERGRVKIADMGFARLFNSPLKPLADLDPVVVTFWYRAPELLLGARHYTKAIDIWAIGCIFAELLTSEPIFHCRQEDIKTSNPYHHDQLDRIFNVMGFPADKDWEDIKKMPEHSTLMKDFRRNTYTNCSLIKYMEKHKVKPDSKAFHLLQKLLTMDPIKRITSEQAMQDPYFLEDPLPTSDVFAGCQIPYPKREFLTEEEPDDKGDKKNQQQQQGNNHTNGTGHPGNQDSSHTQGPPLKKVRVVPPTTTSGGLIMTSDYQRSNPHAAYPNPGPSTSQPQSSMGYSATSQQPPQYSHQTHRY
Chain of CDK8/Cyclin C (P24863 whole entry partner): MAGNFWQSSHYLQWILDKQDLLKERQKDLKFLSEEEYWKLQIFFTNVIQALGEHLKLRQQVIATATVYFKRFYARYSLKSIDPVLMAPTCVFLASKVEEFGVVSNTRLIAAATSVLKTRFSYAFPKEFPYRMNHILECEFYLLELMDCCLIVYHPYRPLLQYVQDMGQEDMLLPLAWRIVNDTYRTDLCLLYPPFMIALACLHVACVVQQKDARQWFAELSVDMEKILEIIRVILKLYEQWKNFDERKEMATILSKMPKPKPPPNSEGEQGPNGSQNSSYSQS
Chain of CDK19/Cyclin C (Q9BWU1 whole entry): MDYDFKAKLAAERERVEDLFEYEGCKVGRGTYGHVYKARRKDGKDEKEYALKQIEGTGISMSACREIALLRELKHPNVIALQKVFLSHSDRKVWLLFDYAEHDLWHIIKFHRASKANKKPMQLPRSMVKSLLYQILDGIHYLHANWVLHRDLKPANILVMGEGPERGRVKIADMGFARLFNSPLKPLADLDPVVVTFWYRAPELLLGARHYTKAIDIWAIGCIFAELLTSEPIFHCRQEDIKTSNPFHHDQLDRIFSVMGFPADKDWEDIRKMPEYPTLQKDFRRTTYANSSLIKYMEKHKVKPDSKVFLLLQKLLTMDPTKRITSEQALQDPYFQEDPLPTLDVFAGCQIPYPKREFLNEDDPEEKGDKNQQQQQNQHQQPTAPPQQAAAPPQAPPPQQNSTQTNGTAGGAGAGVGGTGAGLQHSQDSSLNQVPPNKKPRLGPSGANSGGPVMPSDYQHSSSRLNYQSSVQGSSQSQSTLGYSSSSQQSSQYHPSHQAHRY
Chain of CDK19/Cyclin C (P24863 whole entry partner): as the sequence (P24863 whole entry partner) above

SMILES: CN1CCN(c2ccc(Nc3ncc4cc5n(c4n3)C3(CCCCC3)CNC5=O)nc2)CC1 [Trilaciclib]
- inhibition at 10 µM (CDK1/Cyclin E1; average of experiments): 8.6%
- inhibition at 10 µM (CDK1/Cyclin E1; independent experiment 1): 17.2%
- inhibition at 10 µM (CDK1/Cyclin E1; independent experiment 2): -0.0634%
- inhibition at 10 µM (CDK4/Cyclin D1; average of experiments): 93%
- inhibition at 10 µM (CDK4/Cyclin D1; independent experiment 1): 97%
- inhibition at 10 µM (CDK4/Cyclin D1; independent experiment 2): 88.9%
- inhibition at 10 µM (CDK5/CDK5R1; average of experiments): -10.2%
- inhibition at 10 µM (CDK5/CDK5R1; independent experiment 1): 2.3%
- inhibition at 10 µM (CDK5/CDK5R1; independent experiment 2): -22.7%
- inhibition at 10 µM (CDK6/Cyclin D1; average of experiments): 99.4%
- inhibition at 10 µM (CDK6/Cyclin D1; independent experiment 1): 98.4%
- inhibition at 10 µM (CDK6/Cyclin D1; independent experiment 2): 100%
- inhibition at 10 µM (CDK7; average of experiments): 8.6%
- inhibition at 10 µM (CDK7; independent experiment 1): -3.8%
- inhibition at 10 µM (CDK7; independent experiment 2): 20.9%
- inhibition at 10 µM (CDK8/Cyclin C; average of experiments): 7.6%
- inhibition at 10 µM (CDK8/Cyclin C; independent experiment 1): 7.9%
- inhibition at 10 µM (CDK8/Cyclin C; independent experiment 2): 7.4%
- inhibition at 10 µM (CDK9/Cyclin K; average of experiments): 38.1%
- inhibition at 10 µM (CDK9/Cyclin K; independent experiment 1): 30%
- inhibition at 10 µM (CDK9/Cyclin K; independent experiment 2): 46.2%
- inhibition at 10 µM (CDK11A/Cyclin L2; average of experiments): 6.5%
- inhibition at 10 µM (CDK11A/Cyclin L2; independent experiment 1): 7.3%
- inhibition at 10 µM (CDK11A/Cyclin L2; independent experiment 2): 5.8%
- inhibition at 10 µM (CDK11B/Cyclin L2; average of experiments): 23.5%
- inhibition at 10 µM (CDK11B/Cyclin L2; independent experiment 1): 6.3%
- inhibition at 10 µM (CDK11B/Cyclin L2; independent experiment 2): 40.7%
- inhibition at 10 µM (CDK12/Cyclin K; average of experiments): -2.6%
- inhibition at 10 µM (CDK12/Cyclin K; independent experiment 1): -5.3%
- inhibition at 10 µM (CDK12/Cyclin K; independent experiment 2): 0.155%
- inhibition at 10 µM (CDK13/Cyclin K; average of experiments): 3.3%
- inhibition at 10 µM (CDK13/Cyclin K; independent experiment 1): 1.9%
- inhibition at 10 µM (CDK13/Cyclin K; independent experiment 2): 4.7%
- inhibition at 10 µM (CDK14/Cyclin Y; average of experiments): 11.3%
- inhibition at 10 µM (CDK14/Cyclin Y; independent experiment 1): 16.4%
- inhibition at 10 µM (CDK14/Cyclin Y; independent experiment 2): 6.2%
- inhibition at 10 µM (CDK15/Cyclin Y; average of experiments): 8%
- inhibition at 10 µM (CDK15/Cyclin Y; independent experiment 1): 2.9%
- inhibition at 10 µM (CDK15/Cyclin Y; independent experiment 2): 13.1%
- inhibition at 10 µM (CDK16/Cyclin Y; independent experiment 1): 57.8%
- inhibition at 10 µM (CDK16/Cyclin Y; independent experiment 2): 35.1%
- IC50 (CDK16/Cyclin Y; average (± SEM where n=3)): 600 ± 200 nM
- IC50 (CDK16/Cyclin Y; independent experiment 1): 162 nM
- IC50 (CDK16/Cyclin Y; independent experiment 2): 870 nM
- IC50 (CDK16/Cyclin Y; independent experiment 3): 721 nM
- inhibition at 10 µM (CDK17/Cyclin Y; average of experiments): 41.1%
- inhibition at 10 µM (CDK17/Cyclin Y; independent experiment 1): 49.5%
- inhibition at 10 µM (CDK17/Cyclin Y; independent experiment 2): 32.7%
- IC50 (CDK17/Cyclin Y; average (± SEM where n=3)): 500 ± 200 nM
- IC50 (CDK17/Cyclin Y; independent experiment 1): 113 nM
- IC50 (CDK17/Cyclin Y; independent experiment 2): 800 nM
- IC50 (CDK17/Cyclin Y; independent experiment 3): 628 nM
- inhibition at 10 µM (CDK18/Cyclin Y; average of experiments): 13.4%
- inhibition at 10 µM (CDK18/Cyclin Y; independent experiment 1): 6.3%
- inhibition at 10 µM (CDK18/Cyclin Y; independent experiment 2): 20.6%
- inhibition at 10 µM (CDK20/Cyclin H; independent experiment 1): 10%
- inhibition at 10 µM (CDK20/Cyclin H; independent experiment 2): 5.6%
- inhibition at 10 µM (CDK19/Cyclin C; average of experiments): 9.4%
- inhibition at 10 µM (CDK19/Cyclin C; independent experiment 1): 10.3%
- inhibition at 10 µM (CDK19/Cyclin C; independent experiment 2): 8.5%
- inhibition at 10 µM (CDK10/Cyclin L2; average of experiments): 11.6%
- inhibition at 10 µM (CDK10/Cyclin L2; independent experiment 1): 13.3%
- inhibition at 10 µM (CDK10/Cyclin L2; independent experiment 2): 9.9%
